Assays:
[1] = test system: HNT-34; experiment: Cell proliferation panel (CellTiter-Glo 2.0, 5 days); type: cell-based; conditions: Acute myeloid leukemia
Procedure, shortened: (§1)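 1000 attached / 3000 suspension cells per well; 9-dose 1:3 titration; 5 d, 37° C., 5% CO2; luciferase ATP readout; IC50 by curve fit.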

[2] = test system: SKOV3; experiment: as above; type: cell-based; conditions: Ovarian adenocarcinoma
Procedure, shortened: as §1

[3] = test system: SNU-16; experiment: as above; type: cell-based; conditions: Gastric carcinoma
Procedure, shortened: as §1

[4] = test system: BT-474; experiment: as above; type: cell-based; conditions: Mammary gland ductal carcinoma
Procedure, shortened: as §1

[5] = test system: PANC0504; experiment: as above; type: cell-based; conditions: Pancreatic carcinoma
Procedure, shortened: as §1

[6] = test system: MCF7; experiment: as above; type: cell-based; conditions: Breast adenocarcinoma
Procedure, shortened: as §1

[7] = test system: SKNO-1; experiment: as above; type: cell-based; conditions: Acute myeloid leukemia
Procedure, shortened: as §1

[8] = target: FLT3-ITD (Homo sapiens, UniProt P36888); experiment: HotSpot radiometric kinase assay (Reaction Biology); type: biochemical
Experimental: Briefly, specific kinase/substrate pairs along with required cofactors were prepared in reaction buffer; 20 mM Hepes pH 7.5, 10 mM MgCl2, 1 mM EGTA, 0.02% Brij35, 0.02 mg/ml BSA, 0.1 mM Na3VO4, 2 mM DTT, 1% DMSO. Compounds were delivered into the reaction, followed ˜20 minutes later by addition of a mixture of ATP (Sigma, St. Louis MO) and ^33P ATP (Perkin Elmer, Waltham MA) to a final concentration of 10 M. Reactions were carried out at room temperature for 120 min, followed by spotting of the reactions onto P81 ion exchange filter paper (Whatman Inc., Piscataway, NJ). Unbound phosphate was removed by extensive washing of filters in 0.75% phosphoric acid. […] IC50 values and curve fits were obtained using Prism (GraphPad Software).

[9] = test system: BCLxS/xL; experiment: Alternative splicing ratio by qPCR in MV-4-11; type: cell-based; conditions: DMSO = 1
Experimental: Alternative splicing ratio of RNA transcripts was measured by qPCR in MV-4-11 and MOLM-13 cell lines. Cells were plated in 24 well plates at 1 million cells per well and then treated with compounds at different concentrations, with DMSO only as control. […] Total RNA was extracted using the RNA Purification Kit (Invitrogen). 2 μg of RNA was used for cDNA synthesis using cDNA synthesis kit (ThermoFisher) and 20 ng of cDNA was used for qPCR using PROFLEX 96-Well PCR System (ThermoFisher).
• BCLxS/xL (SYBR Green, IDT)

Chain of FLT3-ITD (P36888 whole entry, looked up, change not shown): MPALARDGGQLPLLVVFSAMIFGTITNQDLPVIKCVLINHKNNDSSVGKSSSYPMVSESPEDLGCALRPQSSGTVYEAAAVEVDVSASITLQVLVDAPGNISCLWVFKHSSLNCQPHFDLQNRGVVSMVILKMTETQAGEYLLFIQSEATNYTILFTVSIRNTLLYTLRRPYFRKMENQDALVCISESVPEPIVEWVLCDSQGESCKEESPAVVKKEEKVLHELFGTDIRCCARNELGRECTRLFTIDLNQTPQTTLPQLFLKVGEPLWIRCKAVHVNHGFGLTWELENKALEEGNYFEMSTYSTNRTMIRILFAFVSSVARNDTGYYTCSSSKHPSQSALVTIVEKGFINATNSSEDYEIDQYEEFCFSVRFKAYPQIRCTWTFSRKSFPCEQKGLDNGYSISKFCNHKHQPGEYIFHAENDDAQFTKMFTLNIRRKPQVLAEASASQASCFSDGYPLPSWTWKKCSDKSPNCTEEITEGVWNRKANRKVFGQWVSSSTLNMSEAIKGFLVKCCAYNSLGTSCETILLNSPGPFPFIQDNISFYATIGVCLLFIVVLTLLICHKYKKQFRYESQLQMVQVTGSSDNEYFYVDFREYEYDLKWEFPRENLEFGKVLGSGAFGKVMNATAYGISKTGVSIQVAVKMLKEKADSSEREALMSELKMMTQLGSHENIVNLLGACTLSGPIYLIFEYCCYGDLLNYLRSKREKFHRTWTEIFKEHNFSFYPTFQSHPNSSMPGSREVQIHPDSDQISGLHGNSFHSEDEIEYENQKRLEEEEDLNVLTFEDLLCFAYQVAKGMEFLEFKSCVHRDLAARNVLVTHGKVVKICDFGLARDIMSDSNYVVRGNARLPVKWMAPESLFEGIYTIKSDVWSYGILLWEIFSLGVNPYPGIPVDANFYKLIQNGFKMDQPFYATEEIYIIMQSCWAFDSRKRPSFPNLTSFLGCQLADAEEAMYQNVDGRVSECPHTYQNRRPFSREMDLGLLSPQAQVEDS

## CCc1nn(C)c2c1/C=C/c1n[nH]c3ccc(cc13)-c1cnn(C)c1OCCN(C)C2=O [Ex. 6, (17E)-16-ethyl-8,12,14-trimethyl-2,11,12,14-tetrahydro-8H-3,5-ethenotripyrazolo[3,4-f:3′,4′-j:4″,3″-n][1,4]oxazacyclopentadecin-13(10H)-one]
[1]
  IC50: 22.3 nM
[2]
  IC50: 117 nM
[3]
  IC50: 90.5 nM
[4]
  IC50: 278 nM
[5]
  IC50: 82.2 nM
[6]
  IC50: 75.9 nM
[7]
  IC50: 23.3 nM
[8]
  IC50: 0.348 nM
[9]; MV-4-11, 2 nM
  Alternative Splicing Ratio BCL-xS/xL 6-hour: 0.7
  Alternative Splicing Ratio BCL-xS/xL 24-hour: 0.6
[9]; MV-4-11, 10 nM
  Alternative Splicing Ratio BCL-xS/xL 6-hour: 1.1
  Alternative Splicing Ratio BCL-xS/xL 24-hour: 0.9
[9]; MV-4-11, 50 nM
  Alternative Splicing Ratio BCL-xS/xL 6-hour: 1.4
  Alternative Splicing Ratio BCL-xS/xL 24-hour: 1.3
[9]; MV-4-11, 250 nM
  Alternative Splicing Ratio BCL-xS/xL 6-hour: 3.7
  Alternative Splicing Ratio BCL-xS/xL 24-hour: 7.3

— patent US20260070924A1, “INDAZOLE MACROCYCLES AND THEIR USE” (BLOSSOMHILL THERAPEUTICS, INC., priority 2022, published 2026)
